Experimental data as given in US10471054B2, “CDK1 inhibitors of acetyl chrysin mannich base derivatives, synthesis and use thereof” (priority 2016, dated 2019).
≈ marks a conversion by molar mass, not a printed value. Where two headings read alike, the source gives them in different places. Blank lines part the entries; values can stand above or below the compound they belong to.

Key:
[1] = Solubility in Octanol, water and pH media; type: physicochemical; conditions: 37° C.
Experimental: (§1) The solubility and log P of acetyl ChrysinMannich base derivatives see TABLE 1.
(§2) CH-j is pKa 5.3, log P 1.63 in Octanol/Water at 37° C. […] (BA-j 77m/ml). CH-j belongs to BCS II (low solubility, high permeability) and solubility presents the pH dependence. […] CH-j is a pH dependent fast release. […] It is speculated that CH-j has more appropriate log P and solubility with more likely entering tissue cells than others solubility acetyl Chrysin Mannich base derivatives.
(§3) (about 20 times BA-f 277 μg/ml) and 564 μg/ml in water at 37° C. (about 1000 times BA-f 0.53m/ml). CH-f is BCS I (high solubility and permeability) and solubility presents the pH dependence. It is speculated that CH-f has more appropriate log P and solubility with entering systemic (blood system and tissue cells) than others solubility acetyl Chrysin Mannich base derivatives.

pKa = type: physicochemical
Experimental: as §2, §3

log P in Octanol/Water = type: physicochemical; conditions: octanol/water, Octanol/Water at 37° C.
Experimental: as §1, §2, §3

BGC-823 [2] = assay: Annexin V-FITC-PI double fluorescence, apoptosis and necrosis; type: cell-based; conditions: 24 h
Source text: There is a series of morphological characteristic changes in the apoptosis of cells, in which the change of the plasma membrane is one of the characteristics of early apoptosis. The cytoplasm is flipped from the inside of the cytoplasm to the outer surface of the cell when the cell apoptosis, Annexin V is a Ca^++ dependent phospholipid binding protein, which has a high affinity with phospholipid-peptide-serine, which can be combined with the phospholipid peptide specificity that is exposed to the extracellular cells. However, cytoplasm transfer to cell membrane is not unique to apoptosis, but also can occur in cell necrosis. The difference between the two cell death modes is that the cell membrane is intact in the initial stage of apoptosis, and the integrity of the cell membrane in its early stage is destroyed. PI is a nucleic acid dye that cannot pass through the intact cell membrane, but in the cell and necrotic cells in the middle and late stage of apoptosis, the PI can dye the nucleus through the cell membrane. Annexin V-FITC-PI was used to detect apoptosis and necrotic cell ratio on flow cytometry.
A relatively small increase in apoptotic cells is increased.
FIG. 3-3 Annexin V-FITC/PI staining results for BGC-823.

Hep G2 [3] = assay: NaOCl level, BODTPY-OCl fluorescent probe imaging; type: cell-based; conditions: CH-j 40 μM or HCPT 5 μM for 4 h
Experimental: In vitro cultured Hep G2 was given by BODTPY-OCl selective fluorescent probe 5 μM for 0.5 h, added CH-j 40 μM or HCPT 5 μM for 4 h, and performed fluorescence imaging.

plasma proteins = assay: Protein binding rate and reversible binding rate; type: in vitro ADME
Experimental: (§4) The combination of drugs and plasma proteins is usually reversible, and the affinity strength is determined by the reversible binding rate of the drug-protein complex. Only free drugs can spread to the tissue through the lipid membrane. By modifying the structure of the drug, the effect of the drug on the target site can be improved by improving the reversible binding rate of the drug-protein complex.
(§5) The acidic part of polyphenol hydroxyl group is combined with lysine alkaline site in albumin structure. The protein binding rate and reversible binding rate of CH-j see TABLE 2.

[4] = Protein binding rate and reversible binding rate; type: in vitro ADME; conditions: plasma proteins
Experimental: as §4, §5

MCF-7 [5] = assay: Anti-cancer cells proliferation activity (MTT, 48 h); type: cell-based; conditions: Homo sapiens, MCF7, MCF-7, MTT
Source text: (§6) Anti-cancer cells proliferationactivity of in vitro CH-j and CH-f were shown in TABLE 2 for the results of the screening of 5 cancers cells.

H-460 = assay: as above; type: cell-based; conditions: Homo sapiens, NCI-H460, H-460, MTT
Source text: as §6

PC-3 = assay: as above; type: cell-based; conditions: Homo sapiens, PC-3, MTT
Source text: as §6

Hep G2 [6] = assay: as above; type: cell-based; conditions: Homo sapiens, HepG2
Source text: as §6

CDK1 = CDK1 (Homo sapiens, UniProt P06493); assay: CDK1 inhibition activity; type: biochemical; conditions: read-out: inhibiting CDK1 CC50
BGC-823 [7] = assay: Anti-cancer cells proliferation activity (MTT, 48 h); type: cell-based; conditions: Homo sapiens, BGC-823, MTT
Experimental: as §6
FIG. 2: The initial screening results of the anticancer activity of BGC-823 (MTT, for 48 h), and X-coordinate is the drug concentration (MTT, for 48 h), and Y-coordinate the cell survival rate (%) in vitro.

MCF-7 [8] = assay: Autophagy in MCF-7; type: cell-based; conditions: 50 μM for 9 h and 24 h
[9] = tested on: 5 cancers cells (MCF-7, H-460, BGC-823, PC-3, Hep G2); assay: Anti-cancer cells proliferation activity, average of 5 cancer cells; type: cell-based; conditions: average of 5 cancer cells
Source text: as §6

[10] = Tissue distribution in rat, 2 h; type: in vivo; conditions: rat
Experimental: The distribution results of CH-j tissue distribution were shown in FIG. 6, when CH-j 100 mg/kg rat by venous intravenous (i.v.) or oral (p.o.) 2 h. […] CH-j by oral in the stomach concentration of the large, about 2 time higher than other tissues. […] Compared with the intravenous administration, the oral administration was completely absorbed and the bioavailability was close to 100%.
FIG. 6: 2 h distribution of the drug (100 mg/kg) by CH-j rats: Y-coordinate is the concentration of CH-j (μg/g), by intravenous (i.v.), by oral (p.o.).

[11] = oral, liver first pass effect; cited from earlier work
[12] = cited from earlier work
[13] = tested on: PBMCs, activated lymphocytes, human normal Liver cells; assay: H2O2 level in blood and normal cells, PF1-H2O2 fluorescent probe; type: cell-based; conditions: CH-j: PBMCs and activated lymphocytes; BA-j: activated lymphocyte
Experimental: The cells are cancer cells (MCF-7, GBC-823, Hep G2) and normal cells (Liver, COS-7, PBMCs). According to the literature [Scientific Reports, 2015, 5: 13626; Anti-cancer Agents in Medicinal Chemistry, 2016, 16: 914-924.], in vitro cultured cells was given to CH-j 25 μM for 3.5 h, added PF1-H2O2 selective fluorescence probe 10 μM for 0.5 h and detected the concentration of H2O2 in cells, and performed fluorescence imaging by results shown in FIG. 1.
FIG. 1-3, FIG. 1-4, The fluorescence imaging by PF1-H2O2 10 μM is that CH-j […] for 4 h affected the level of H2O2 in MCF-7, GBC-823, Hep G2 and Liver.
FIG. 1-3: CH-j/BA-j affects the levels of H2O2 in blood cells, X-coordinate is the concentration of CH-j/BA-j concentration (μM), and Y-coordinate the intracellular levels of H2O2 (μM) for 4 h with PF1-H2O2 10 μM by Fluorescence Microplater Reader (488 nm/525 nm).

[14] = Pharmacokinetics by oral in monkey (urine drug concentration-time curve); type: in vivo; conditions: rhesus, monkey (n = 6), 3 mg/kg
[15] = as above; type: in vivo; conditions: monkey (n = 6), 3 mg/kg in Table 4, 5 mg/kg in text
Experimental: Chromatographic conditions and the system applies: with C18 chromatographic column (acid the tall secretory effect, 5 μm, 4.6*150 mm), in acetonitrile-methanol-water-mesylate (25:20:55:0.15) as mobile phase, detection UV 283 nm, the velocity 1 ml/min, and the sample volume 20 μl. The theoretical plate number is not less than 2000 according to CH-j peak.
Sample solution: after the macaques were drugged, the catheter was inserted. The urine by oral CH-j 5 mg/kg is collected, added the methanol at 1:4 (v:v), centrifuge and remove the liquid to measure. Control solution is CH-j methanol solution 5 μg/ml. The log P of CH-j is larger, the fat solubility strong, and absorption distribution in the body very rapid, the urine drug concentration-time curve consistent with the typical two-compartment model. Tmax1, 1.3 h, Cmax1 is […]. […] The apparent distribution volume (Vd) 42 L, mainly distributed in body fluid (BA-j Vd 12.6 L, mainly distributed in blood. See Fitoterapia, 2015, 107: 36-34)
FIG. 5: The concentration of urine drug concentration-time curve in monkey (n=6) by CH-j oral 5 mg/kg, X-coordinate is oral CH-j time (h) and Y-coordinate is the concentration of CH-j (μM).

[16] = in vivo; cited from earlier work
[17] = organic solvent or mixture, Octanol, read-out: Solubility in Octanol
[18] = water, read-out: Solubility in H2O
[19] = water, text values of BA-j and BA-f, read-out: Solubility in water

Sequence of CDK1 (P06493 whole entry, species assumed): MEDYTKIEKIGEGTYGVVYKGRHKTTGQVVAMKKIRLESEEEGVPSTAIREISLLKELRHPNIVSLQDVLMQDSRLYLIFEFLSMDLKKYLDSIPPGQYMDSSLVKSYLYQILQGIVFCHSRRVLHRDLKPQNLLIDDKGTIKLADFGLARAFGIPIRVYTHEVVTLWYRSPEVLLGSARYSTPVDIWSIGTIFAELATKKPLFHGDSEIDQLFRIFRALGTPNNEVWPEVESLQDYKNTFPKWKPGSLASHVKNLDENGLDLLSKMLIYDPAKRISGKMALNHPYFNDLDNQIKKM
Sequence of CDK1 (P14635 whole entry partner, species assumed): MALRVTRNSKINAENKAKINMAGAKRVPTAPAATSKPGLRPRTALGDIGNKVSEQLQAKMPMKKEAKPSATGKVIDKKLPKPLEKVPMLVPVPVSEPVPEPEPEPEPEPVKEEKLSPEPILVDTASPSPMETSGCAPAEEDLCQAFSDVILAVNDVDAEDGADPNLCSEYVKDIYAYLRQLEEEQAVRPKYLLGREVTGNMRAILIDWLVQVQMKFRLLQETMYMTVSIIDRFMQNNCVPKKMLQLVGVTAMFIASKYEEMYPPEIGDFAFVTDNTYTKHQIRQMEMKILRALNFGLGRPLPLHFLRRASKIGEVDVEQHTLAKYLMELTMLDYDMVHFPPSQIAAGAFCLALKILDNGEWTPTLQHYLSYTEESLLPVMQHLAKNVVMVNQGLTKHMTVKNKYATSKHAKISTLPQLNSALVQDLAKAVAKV

Structure (SMILES): CC[C@@]1(O)C(=O)OCc2c1cc1n(c2=O)Cc2cc3cc(O)ccc3nc2-1 [HCPT, reference compound]
Apoptosis and necrosis by Annexin V-FITC-PI (BGC-823 [2]): induce apoptosis at low doses, and high dose can cause the inflammatory necrosis of early cells
NaOCl, yellow green fluorescence (Hep G2 [3]): present fluorescence

Structure (SMILES): CC(=O)c1c(O)c(CN2CCN(CCO)CC2)c2oc(-c3ccccc3)cc(=O)c2c1O [CH-i, 6-Acetyl-5,7-dihydroxy-8-[4-(2-hydroxy-ethyl)-piperazin-1-ylmethyl]-2-phenyl-chromen-4-one]
solubility [1, 17]: 733 µg/mL (≈ 1670 µM)
solubility [1, 18]: 6.2 µg/mL (≈ 14.1 µM)
pKa (pKa): 4.8
logP (log P in Octanol/Water): 2.07

Structure (SMILES): CC(=O)c1c(O)c(CN2CCOCC2)c2oc(-c3ccccc3)cc(=O)c2c1O [CH-d, 6-Acetyl-5,7-dihydroxy-8-morpholin-4-ylmethyl-2-phenyl-chromen-4-one]
solubility [1, 17]: 580 µg/mL (≈ 1470 µM)
solubility [1, 18]: 1.4 µg/mL (≈ 3.54 µM)
pKa (pKa): 5.1
logP (log P in Octanol/Water): 2.62

Structure (SMILES): CC(=O)c1c(O)c(CN2CCCC2CO)c2oc(-c3ccccc3)cc(=O)c2c1O (stereo not drawn) [CH-h, 6-Acetyl-5,7-dihydroxy-8-(2-hydroxymethyl-pyrrolidin-1-ylmethyl)-2-phenyl-chromen-4-one]
solubility [1, 17]: 2550 µg/mL (≈ 6230 µM)
solubility [1, 18]: 43.4 µg/mL (≈ 106 µM)
pKa (pKa): 5.4
logP (log P in Octanol/Water): 1.77

Structure (SMILES): CN1CC[C@H](c2c(O)cc(O)c3c(=O)cc(-c4ccccc4Cl)oc23)[C@H](O)C1 [Flavopiridol]
Intravenous drip steady plasma concentration [16]: 0.27 µM

Structure (SMILES): O=c1cc(-c2ccccc2)oc2cc(O)cc(O)c12 [Chrysin]
IC50 ([9]; MTT, 48 h): 30 µM
Glucose aldehyde acid metabolism [11]: > 95%
Maximum drug concentration ([12]; Chrysin comparison value): 0.64 µM

Continued, in another order:

solubility [1, 17]: 3410 µg/mL (≈ 8330 µM)
solubility [1, 18]: 52 µg/mL (≈ 127 µM)
pKa (pKa): 4.5
logP (log P in Octanol/Water): 1.82
Structure (SMILES): CC(=O)c1c(O)c(CN2CCC(O)CC2)c(O)c2c(=O)cc(-c3ccccc3)oc12 [is-CH-j, 8-Acetyl-5,7-dihydroxy-6-(4-hydroxy-piperidin-1-ylmethyl)-2-phenyl-chromen-4-one]

solubility [1, 17]: 277 µg/mL (≈ 724 µM)
solubility [1, 19]: 0.53 µg/mL (≈ 1.39 µM)
pKa (pKa): 5.6
logP (log P in Octanol/Water): 1.7
Structure (SMILES): CN1CCN(Cc2c(O)c(O)c(O)c3c(=O)cc(-c4ccccc4)oc23)CC1 [BA-f, 5,6,7-trihydroxy-8-(4-methylpiperazin-1-ylmethyl)-2-phenyl-chromen-4-one, reference compound]

Reversie binding rate AV (plasma proteins; average of 3 concentrations): 20.1%
Reversie binding rate (plasma proteins; drug concentration 12.5 μg/ml): 19.1%
Reversie binding rate (plasma proteins; drug concentration 25 μg/ml): 21.0%
Reversie binding rate (plasma proteins; drug concentration 50 μg/ml): 20.2%
fraction unbound ([4]; average of 3 concentrations, read-out: Protein binding rate AV (converted)): 0.082
fraction unbound at 12.5 μg/ml ([4]; drug concentration 12.5 μg/ml): 0.067
fraction unbound at 25 μg/ml ([4]; drug concentration 25 μg/ml): 0.075
fraction unbound at 50 μg/ml ([4]; drug concentration 50 μg/ml): 0.104
IC50 (MCF-7 [5]): 10.6 ± 0.3 µM
IC50 (H-460): 13.7 ± 1.83 µM
IC50 (PC-3): 12.8 ± 2.06 µM
IC50 (Hep G2 [6]): 15.7 ± 1.3 µM
IC50 (BGC-823 [7]): 12.3 ± 1.73 µM
IC50 [9]: 4.7 µg/mL
IC50 ([9]; MTT, 48 h): 12.3 µM
solubility [1, 17]: 377 µg/mL (≈ 983 µM)
solubility [1, 19]: 77 µg/mL (≈ 201 µM)
pKa (pKa): 5.5
AUC(0-inf) [14]: 71.5 µM·h
logP (log P in Octanol/Water): 0.69
V d ([15]; oral): 12.6 L
t1/2β ([15]; oral): 4.2 h
Tmax ([15]; rhesus, monkey, urine, po, read-out: T max (Tmax1)): 2 h
Cmax ([15]; rhesus, urine, oral): 25.4 µM
Structure (SMILES): O=c1cc(-c2ccccc2)oc2c(CN3CCC(O)CC3)c(O)c(O)c(O)c12 [BA-j, 5,6,7-trihydroxy-8-(4-hydroxy-piperidin-1-ylmethyl)-2-phenyl-chromen-4-one, reference compound]
CDK1 50% inhibitory concentration (CDK1): 300 nM
Autophagy (MCF-7 [8]): without
Detection of prototype drug in blood, urine, tissues [10]: prototype drug can not be detected in the tissues
Glucose aldehyde acid metabolism [11]: < 5%
V d ([12]; BA-j, see Fitoterapia, 2015): 12.6 L
Dose dependence of H2O2 level [13]: significant dose-dependent manner, with mass apoptosis and without necrosis

solubility [1, 17]: 120 µg/mL (≈ 292 µM)
solubility [1, 18]: 0.1 µg/mL (≈ 0.243 µM)
pKa (pKa): 4.8
logP (log P in Octanol/Water): 3.08
Structure (SMILES): CC(=O)c1c(O)c(CN2CCSCC2)c2oc(-c3ccccc3)cc(=O)c2c1O [CH-e, 6-Acetyl-5,7-dihydroxy-2-phenyl-8-(thiomorpholin-4-ylmethyl)-2-phenyl-chromen-4-one]
